In general, IC50 refers to the midpoint of a concentration-inhibition curve.

Consider 23 compounds from US11814367B2, “Inhibitors of glycogen synthase 1 (GYS1) and methods of use thereof” (Maze Therapeutics, Inc., priority 2021, dated 2023).

hGYS1 enzyme (recombinant hGYS1/GN1 protein), sequence (P13807 whole entry): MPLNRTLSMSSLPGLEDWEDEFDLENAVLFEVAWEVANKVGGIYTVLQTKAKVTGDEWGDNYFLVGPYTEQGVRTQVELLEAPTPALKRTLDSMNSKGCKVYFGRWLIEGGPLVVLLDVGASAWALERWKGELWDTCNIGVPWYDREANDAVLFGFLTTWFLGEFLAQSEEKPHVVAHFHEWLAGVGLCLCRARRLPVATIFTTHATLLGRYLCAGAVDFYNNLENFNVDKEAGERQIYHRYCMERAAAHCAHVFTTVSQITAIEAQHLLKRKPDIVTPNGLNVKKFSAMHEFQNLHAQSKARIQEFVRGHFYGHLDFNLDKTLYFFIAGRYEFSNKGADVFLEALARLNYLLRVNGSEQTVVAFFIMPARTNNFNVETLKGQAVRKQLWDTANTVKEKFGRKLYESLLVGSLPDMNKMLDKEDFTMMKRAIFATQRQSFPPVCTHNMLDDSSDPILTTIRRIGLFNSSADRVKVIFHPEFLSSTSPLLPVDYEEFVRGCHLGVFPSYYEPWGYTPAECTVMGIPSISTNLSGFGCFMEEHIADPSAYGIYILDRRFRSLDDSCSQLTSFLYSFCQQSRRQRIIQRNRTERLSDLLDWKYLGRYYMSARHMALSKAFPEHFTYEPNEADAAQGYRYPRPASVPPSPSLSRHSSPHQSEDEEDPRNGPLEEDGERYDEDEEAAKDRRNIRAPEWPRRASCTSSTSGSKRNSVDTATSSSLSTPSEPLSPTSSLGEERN
hGYS1 enzyme (recombinant hGYS1/GN1 protein), sequence (P46976 whole entry partner): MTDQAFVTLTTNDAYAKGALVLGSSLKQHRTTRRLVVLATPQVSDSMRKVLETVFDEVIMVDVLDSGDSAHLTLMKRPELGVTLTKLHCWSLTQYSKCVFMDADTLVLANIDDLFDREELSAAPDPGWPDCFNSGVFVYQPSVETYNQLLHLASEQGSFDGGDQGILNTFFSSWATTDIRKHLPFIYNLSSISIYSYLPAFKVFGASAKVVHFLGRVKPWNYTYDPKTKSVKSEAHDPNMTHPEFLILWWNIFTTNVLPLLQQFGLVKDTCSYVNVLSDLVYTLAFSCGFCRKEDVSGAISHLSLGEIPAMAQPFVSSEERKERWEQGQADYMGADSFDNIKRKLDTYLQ

The target in this assay is hGYS1 enzyme (recombinant hGYS1/GN1 protein) (Homo sapiens (Human), UniProt P13807). Description: GYS1 coupled enzyme assay (PK/LDH). In kind it is biochemical. The conditions noted are these: hGYS1/GN1 50 nM, UDP-Glucose 0.8 mM, G6P 1 mM; geometric mean of at least 2 runs. An excerpt:
The GYS1 coupled enzyme assay is a kinetic biochemical assay that indirectly quantifies the rate of glycogen synthesis by coupling the conversion of GYS1 substrate UDP-glucose into UDP with downstream enzymatic reactions. UDP is released from UDP-glucose as glucose monomers are linked into the growing glycogen strand by GYS1. The coupled assay then proceeds with pyruvate kinase utilizing UDP and phospho(enol)pyruvate (PEP) to form pyruvate. Lactate dehydrogenase then converts pyruvate and NADH into lactate and NAD+. Oxidation of NADH to NAD+ can be measured continuously with a plate reader by quantifying the decrease in NADH absorbance at 340 nm over time.
Compounds that inhibit the hGYS1 enzyme and, subsequently, the downstream conversion of NADH to NAD+, were tested using assay ready plates (black, clear bottom 384 well plates) in a final DMSO reaction volume of 2.5% DMSO. The Assay Buffer contained 50 mM Tris pH 7.5, 2 mM MgCl2, and 100 mM KCl. Fresh stocks of BSA at a final concentration of 0.02% and TCEP at 1 mM were added before splitting buffer into hGYS1 buffer and substrate buffer. To the hGYS1 buffer, rabbit liver glycogen was added at a final concentration of 0.2% glycogen. Glucose-6-Phosphate was added at 1 mM, recombinant hGYS1/GN1 protein was added at 50 nM to the substrate buffer, phosphoenolpyruvate (PEP) was added at 2 mM, UDP-Glucose was added at 0.8 mM, NADH) was added at 0.6 mM, and Pyruvate Kinase/Lactate Dehydrogenase was added at 20 units/mL. The reaction was initiated by mixing hGYS1 buffer and substrate buffer at a 1:1 ratio. Both buffers were plated using a liquid dispensing device with hGYS1 buffer plated first followed by the substrate buffer. Plates were spun briefly to eliminate air bubbles and are immediately read in continuous mode at an absorbance of 340 nm, for 10 time points in one-minute increments, for a total of 10 minutes. The slope from these 10 time points was normalized to the positive and negative control wells. The duplicate % inhibition values are then averaged and fit to a Hill equation for dose response according to the Levenberg-Marquardt algorithm with the Hill equation maximum set to 100 and the minimum set to 0.
Unless otherwise specified, IC50 values are reported as the geometric mean of at least 2 assay runs on separate days. Each run represents the average of a technical replicate, where each compound was assayed twice in the same plate. […] A superscript “#” symbol in Table 2 indicates results from a single assay run.
As to `CO[C@H](C)[C@@H](C(=O)N1C[C@H](F)C[C@H]1C(=O)N[C@@H](c1ccccc1)c1ccc(C(C)C)cc1)N(C)C(C)=O` [Compound 5, (2S,4R)-4-fluoro-1-[(2S,3R)-3-methoxy-2-(N-methylacetamido)butanoyl]-N-[(S)-phenyl[4-(propan-2-yl)phenyl]methyl]pyrrolidine-2-carboxamide], the concentration for half-maximal inhibition (IC50) was determined as 353 nM.

On to `CC(C)c1ccc([C@@H](NC(=O)[C@@H]2C[C@@H](F)CN2C(=O)c2cnco2)c2ccccc2)cc1` [Compound 12, (2S,4R)-4-fluoro-1-(1,3-oxazole-5-carbonyl)-N-[(S)-phenyl[4-(propan-2-yl)phenyl]methyl]pyrrolidine-2-carboxamide], for which the IC50 was 415 nM.

As to `CC(C)c1ccc([C@@H](NC(=O)[C@@H]2C[C@@H](F)CN2C(=O)Cc2cc[nH]n2)c2ccccc2)cc1` [Compound 19, (2S,4R)-4-fluoro-N-[(S)-phenyl[4-(propan-2-yl)phenyl]methyl]-1-[2-(1H-pyrazol-5-yl)acetyl]pyrrolidine-2-carboxamide], the IC50 was 47 nM.

With `CC(C)c1ccc([C@@H](NC(=O)[C@@H]2C[C@@H](F)CN2C(=O)Cn2cc(Cl)cn2)c2ccccc2)cc1` [Compound 20, (2S,4R)-1-[2-(4-chloro-1H-pyrazol-1-yl)acetyl]-4-fluoro-N-[(S)-phenyl[4-(propan-2-yl)phenyl]methyl]pyrrolidine-2-carboxamide], the IC50 was determined as 46 nM.

With `Cc1ncncc1C(=O)N1C[C@H](F)C[C@H]1C(=O)N[C@@H](c1ccccc1)c1ccc(C(C)C)cc1` [Compound 30, (2S,4R)-4-fluoro-1-(4-methylpyrimidine-5-carbonyl)-N-[(S)-phenyl[4-(propan-2-yl)phenyl]methyl]pyrrolidine-2-carboxamide], the concentration for half-maximal inhibition (IC50) came out at 947 nM.

With `CC(C)c1ccc([C@@H](NC(=O)[C@@H]2C[C@@H](F)CN2C(=O)Cc2ccncc2)c2ccccc2)cc1` [Compound 39, (2S,4R)-4-fluoro-N-[(S)-phenyl[4-(propan-2-yl)phenyl]methyl]-1-[2-(pyridin-4-yl)acetyl]pyrrolidine-2-carboxamide], the IC50 was 50 nM.

For the compound `CCc1nc(C(=O)N2C[C@H](F)C[C@H]2C(=O)N[C@@H](c2ccccc2)c2ccc(C(C)C)cc2)co1` [Compound 42, (2S,4R)-1-(2-ethyl-1,3-oxazole-4-carbonyl)-4-fluoro-N-[(S)-phenyl[4-(propan-2-yl)phenyl]methyl]pyrrolidine-2-carboxamide], the IC50 was 495 nM.

In the case of `CC(C)c1ccc([C@@H](NC(=O)[C@@H]2C[C@@H](F)CN2C(=O)C(C)n2cccn2)c2ccccc2)cc1` (stereo partly drawn) [Compound 43, (2S,4R)-4-fluoro-N-[(S)-phenyl[4-(propan-2-yl)phenyl]methyl]-1-[2-(1H-pyrazol-1-yl)propanoyl]pyrrolidine-2-carboxamide], the IC50 stood at 91 nM.

Turning to `CC(C)c1ccc([C@@H](NC(=O)[C@@H]2C[C@@H](F)CN2C(=O)CCc2cnc[nH]2)c2ccccc2)cc1` [Compound 45, (2S,4R)-4-fluoro-1-[3-(1H-imidazol-5-yl)propanoyl]-N-[(S)-phenyl[4-(propan-2-yl)phenyl]methyl]pyrrolidine-2-carboxamide], the IC50 was found to be 58 nM.

With `CC(C)c1ccc([C@@H](NC(=O)[C@@H]2C[C@@H](F)CN2C(=O)CCc2ncc[nH]2)c2ccccc2)cc1` [Compound 47, (2S,4R)-4-fluoro-1-[3-(1H-imidazol-2-yl)propanoyl]-N-[(S)-phenyl[4-(propan-2-yl)phenyl]methyl]pyrrolidine-2-carboxamide], the IC50 was determined as 138 nM.

As for `CCn1nccc1C(=O)N1C[C@H](F)C[C@H]1C(=O)N[C@@H](c1ccccc1)c1ccc(C(C)C)cc1` [Compound 53, (2S,4R)-1-(1-ethyl-1H-pyrazole-5-carbonyl)-4-fluoro-N-[(S)-phenyl[4-(propan-2-yl)phenyl]methyl]pyrrolidine-2-carboxamide], the IC50 came out at 789 nM.

`Cc1cc(CC(=O)N2C[C@H](F)C[C@H]2C(=O)N[C@@H](c2ccccc2)c2ccc(C(C)C)cc2)[nH]n1` [Compound 54, (2S,4R)-4-fluoro-1-[2-(3-methyl-1H-pyrazol-5-yl)acetyl]-N-[(S)-phenyl[4-(propan-2-yl)phenyl]methyl]pyrrolidine-2-carboxamide]: the IC50 was 47 nM.

Turning to `CC(C)c1ccc([C@@H](NC(=O)[C@@H]2C[C@@H](F)CN2C(=O)CCc2cccnc2)c2ccccc2)cc1` [Compound 66, (2S,4R)-4-fluoro-N-[(S)-phenyl[4-(propan-2-yl)phenyl]methyl]-1-[3-(pyridin-3-yl)propanoyl]pyrrolidine-2-carboxamide], the half-inhibitory concentration (IC50) came out at 82 nM.

For `CC(=O)N(C)C(C)C(=O)N1C[C@H](F)C[C@H]1C(=O)N[C@@H](c1ccccc1)c1ccc(C(C)C)cc1` (stereo partly drawn) [Compound 71, (2S,4R)-4-fluoro-1-[2-(N-methylacetamido)propanoyl]-N-[(S)-phenyl[4-(propan-2-yl)phenyl]methyl]pyrrolidine-2-carboxamide], the IC50 is 375 nM.

As to `CC(=O)Nc1cc(C(=O)N2C[C@H](F)C[C@H]2C(=O)N[C@@H](c2ccccc2)c2ccc(C(C)C)cc2)ccn1` [Compound 72, (2S,4R)-1-(2-acetamidopyridine-4-carbonyl)-4-fluoro-N-[(S)-phenyl[4-(propan-2-yl)phenyl]methyl]pyrrolidine-2-carboxamide], the IC50 turned out to be 472 nM.

On to `CC(C)c1ccc([C@@H](NC(=O)[C@@H]2C[C@@H](F)CN2C(=O)c2cccn3c(=O)[nH]nc23)c2ccccc2)cc1` [Compound 74, (2S,4R)-4-fluoro-1-{3-oxo-2H,3H-[1,2,4]triazolo[4,3-a]pyridine-8-carbonyl}-N-[(S)-phenyl[4-(propan-2-yl)phenyl]methyl]pyrrolidine-2-carboxamide], for which the IC50 is 705 nM.

Turning to `CC(C)c1ccc([C@@H](NC(=O)[C@@H]2C[C@@H](F)CN2C(=O)c2cc(-c3ccncc3)[nH]n2)c2ccccc2)cc1` [Compound 78, (2S,4R)-4-fluoro-N-[(S)-phenyl[4-(propan-2-yl)phenyl]methyl]-1-[5-(pyridin-4-yl)-1H-pyrazole-3-carbonyl]pyrrolidine-2-carboxamide], the IC50 was 953 nM.

For `CC(Cn1ccnc1)C(=O)N1C[C@H](F)C[C@H]1C(=O)N[C@@H](c1ccccc1)c1ccc(C(C)C)cc1` (stereo partly drawn) [Compound 79, (2S,4R)-4-fluoro-1-[3-(1H-imidazol-1-yl)-2-methylpropanoyl]-N-[(S)-phenyl[4-(propan-2-yl)phenyl]methyl]pyrrolidine-2-carboxamide], the IC50 worked out at 313 nM.

On to `CC(Cn1cccn1)C(=O)N1C[C@H](F)C[C@H]1C(=O)N[C@@H](c1ccccc1)c1ccc(C(C)C)cc1` (stereo partly drawn) [Compound 80, (2S,4R)-4-fluoro-1-[2-methyl-3-(1H-pyrazol-1-yl)propanoyl]-N-[(S)-phenyl[4-(propan-2-yl)phenyl]methyl]pyrrolidine-2-carboxamide], for which the IC50 is 318 nM.

As to `COCc1oncc1C(=O)N1C[C@H](F)C[C@H]1C(=O)N[C@@H](c1ccccc1)c1ccc(C(C)C)cc1` [Compound 82, (2S,4R)-4-fluoro-1-[5-(methoxymethyl)-1,2-oxazole-4-carbonyl]-N-[(S)-phenyl[4-(propan-2-yl)phenyl]methyl]pyrrolidine-2-carboxamide], the IC50 was 504 nM.

Regarding `CC(C)c1ccc([C@@H](NC(=O)[C@@H]2C[C@@H](F)CN2C(=O)C(C)(C)c2ccccn2)c2ccccc2)cc1` [Compound 92, (2S,4R)-4-fluoro-1-[2-methyl-2-(pyridin-2-yl)propanoyl]-N-[(S)-phenyl[4-(propan-2-yl)phenyl]methyl]pyrrolidine-2-carboxamide], the IC50 came to 439 nM.

As for `CC(C)c1ccc([C@@H](NC(=O)[C@@H]2C[C@@H](F)CN2C(=O)c2ccc3c(c2)NC(=O)CC3)c2ccccc2)cc1` [Compound 97, (2S,4R)-4-fluoro-1-(2-oxo-1,2,3,4-tetrahydroquinoline-7-carbonyl)-N-[(S)-phenyl[4-(propan-2-yl)phenyl]methyl]pyrrolidine-2-carboxamide], the IC50 turned out to be 712 nM.

`CC(C)CNC(=O)C(=O)N1C[C@H](F)C[C@H]1C(=O)N[C@@H](c1ccccc1)c1ccc(C(C)C)cc1` [Compound 111, (2S,4R)-4-fluoro-1-{[(2-methylpropyl)carbamoyl]carbonyl}-N-[(S)-phenyl[4-(propan-2-yl)phenyl]methyl]pyrrolidine-2-carboxamide]: the IC50 was determined as 1080 nM.
